Measurements as given in patent US20120265121A1, “PHTHALOCYANINE-BASED ANTIFUNGAL AGENTS” (CASE WESTERN RESERVE UNIVERSITY, priority 2011, published 2012).

Key:
[1] = tested on: C. albicans (strain SC-5134); experiment: FUN-1 fluorescence metabolic activity assay (confocal); format: cell-based, Candida albicans; settings: 1.0 μM Pc 4, 2.0 J/cm^2, vs cells exposed to Pc 4 but not irradiated
Description: Pc 4-Photodynamic Treatment Conditions: The phthalocyanine photosensitizer Pc 4 was kindly provided by Dr. Malcolm E. Kenney (Department of Chemistry, Case Western Reserve University, Cleveland, Ohio, USA). Stock solutions (0.5 mM) of Pc 4 were prepared in N′,N′-dimethylformamide (DMF, ThermoFisher, Waltham, Mass., USA) and stored at 4° C. in the dark. C. albicans cultures were incubated with Pc 4 concentrations ranging from 0.1 to 1.0 μM in 1× PBS containing 10% FBS for at least 1 hr at 37° C. in the dark and subsequently irradiated with red light using a light-emitting diode array (EFOS, Mississauga, Ontario, Canada) at a fluence ranging from 1.0 to 2.0 J/cm^2 (1.0 mW/cm^2, λmax ˜670-675 nm) at room temperature. […] The absorbance of the resulting orange solution was measured using a spectrophotometer (Spectronic Genesys 5, Analytical Instrument, Golden Valley, Minn., USA) at 492 nm. […] FUN-1 fluorescence was excited using solid state diode lasers (488 nm) and collected with a 580-650 nm band pass emission filter.

[2] = tested on: C. albicans (strain SC-5134); experiment: DNA fragmentation by agarose gel electrophoresis; format: cell-based, Candida albicans
Description: Subsequently, C. albicans total chromosomal DNA was extracted using the MasterPure™ Yeast DNA Purification Kit (Epicentre Biotechnologies, Madison, Wis., USA) per the manufacturer's protocol. Extracted DNA concentrations were determined with a spectrophotometer (Nanodrop™ 3000, ThermoFisher Scientific, Waltham, Mass., USA) at a wavelength range of 260-280 nm. DNA (3.0 μg) was loaded onto a 1.0% (w/v) agarose gel (Bioexpress, Kaysbille, Utah, USA) impregnated with ethidium bromide (ThermoFisher, Waltham, Mass., USA) and subjected to electrophoresis. The gel was subsequently visualized using a UV transilluminator (VersaDoc™, Bio-Rad, Hercules, Calif., USA).

T. rubrum = experiment: Turbidity growth assay of microconidia after Pc 4-PDT; format: cell-based, Trichophyton rubrum; settings: Pc 4 up to 2 μM, 2.0 J/cm^2
Description: Terbinafine sensitive (23013) and resistant (MRL666) strains of T. rubrum were grown onto Sabouraud potato agar plate for at least 24 hours at 28° C. Microconidia were separated from most of the hyphae form before treating with Pc 4-PDT.

SMILES: CN(C)CCC[Si](C)(C)O[Si]1(O)n2c3c4ccccc4c2N=C2N=C(N=c4c5ccccc5c(n41)=NC1=NC(=N3)c3ccccc31)c1ccccc12 (centres unmarked) [Pc 4, HOSiPcOSi(CH3)2(CH2)3N(CH3)2]
- FUN-1 fluorescence [1]: much reduced FUN-1 fluorescence
- DNA fragmentation ([2]; 0.4 μM Pc 4-PDT): clear evidence of DNA degradation
- DNA fragmentation ([2]; 0.6 μM Pc 4-PDT): matched that of the hydrogen peroxide positive control
- growth of microconidia (T. rubrum; terbinafine resistant strain MRL666): inhibited by Pc 4-PDT in a dose response fashion
- growth of microconidia (T. rubrum; terbinafine sensitive strain 23013): inhibited by Pc 4-PDT in a dose response fashion
